Publication PMC11206519, “Multi-Endpoint Toxicological Assessment of Chrysin Loaded Oil-in-Water Emulsion System in Different Biological Models” (Nanomaterials, 2024)

How the values were obtained:
S. typhimurium TA 100 = assay: Ames test, mutagenicity; assay type: cell-based, Salmonella Typhimurium
Method: (§1) The S. typhimurium strains TA 98 and TA 100 were used to detect frameshift and base-pair mutations, respectively. […] Then, they were poured onto minimal glucose agar containing a trace amount of histidine, following incubation at 37 °C for 48 h. Then, the revertant colonies were counted and compared with the negative control. If the number of revertant colonies in the tested sample treatment is at least twice that of the negative control (spontaneous revertant colonies), it is considered a mutagen.

S. typhimurium TA 98 = assay: Ames test, mutagenicity; assay type: cell-based, Salmonella Typhimurium
Method: as §1

[1] = test system: D. melanogaster trans-heterozygous mwh+/+flr3 larvae of the HB cross; assay: SMART wing spot test, anti-mutagenicity, HB cross
Method: The somatic mutation and recombination test, or the wing spot test, using D. melanogaster was employed as an in vivo system to assess the mutagenicity and anti-mutagenicity of chrysin-ES. Two different crosses were conducted: (i) a standard cross (ST) and (ii) a high bioactivation cross (HB). The standard cross larvae were obtained from virgin female of flr3/TM3, Ser crossed with males of mwh/mwh, while the HB cross larvae expressing cytochrome P450 enzymes involved in xenobiotic biotransformation were obtained from virgin females of ORR/ORR; flr^3/In (3LR) TM3, ri p^psep l (3)89Aa bx^34e e Bd^s crossed with males of mwh/mwh. The flies were cultured at a constant temperature of 25 ± 1 °C and 60–70% RH at photoperiod 12:12 (light/dark). To evaluate the mutagenicity of chrysin and chrysin-ES, a hundred larva F1 progenies derived from the above crossing were fed with instant Drosophila medium (Formula 4-24®), Carolina, Burlington, NC, USA) containing chrysin or chrysin-ES (20–120 µg/mL). DI was used as a negative control, while 20 mM urethane (URE) was used as a positive control. The larvae were reared on each medium until pupation at 25 °C. After that, forty wings of surviving flies in each group were collected for mutant analysis. The mutant spots on the wings, including small single spots, large single spots, and twin spots, were counted. The statistical significance was calculated as previously described by Frei and Würgler.
Furthermore, the anti-mutagenicity of the samples was performed by a similar procedure as mentioned above.

[2] = NMU (sodium nitrite 36 mM: methylurea 10 mM) + 20 μg/mL

## O=c1cc(-c2ccccc2)oc2cc(O)cc(O)c12 [Chrysin, 5,7-dihydroxyflavone]
S. typhimurium TA 100; +S9, 5.7 µM/plate
  Number of Revertant Colonies: 136 ± 12
S. typhimurium TA 100; +S9, 11.4 µM/plate
  Number of Revertant Colonies: 131 ± 7
S. typhimurium TA 100; +S9, 22.8 µM/plate
  Number of Revertant Colonies: 136 ± 8
S. typhimurium TA 100; −S9, 5.7 µM/plate
  Number of Revertant Colonies: 120 ± 6
S. typhimurium TA 100; −S9, 11.4 µM/plate
  Number of Revertant Colonies: 115 ± 7
S. typhimurium TA 100; −S9, 22.8 µM/plate
  Number of Revertant Colonies: 117 ± 4
S. typhimurium TA 98; +S9, 5.7 µM/plate
  Number of Revertant Colonies: 27 ± 7
S. typhimurium TA 98; +S9, 11.4 µM/plate
  Number of Revertant Colonies: 26 ± 8
S. typhimurium TA 98; +S9, 22.8 µM/plate
  Number of Revertant Colonies: 27 ± 8
S. typhimurium TA 98; TA98 and TA100, presence and absence of metabolic activation
  mutagenicity in the Ames test: did not induce mutations
S. typhimurium TA 98; −S9, 5.7 µM/plate
  Number of Revertant Colonies: 22 ± 6
S. typhimurium TA 98; −S9, 11.4 µM/plate
  Number of Revertant Colonies: 23 ± 5
S. typhimurium TA 98; −S9, 22.8 µM/plate
  Number of Revertant Colonies: 23 ± 7
[1]; EMS 5 mM + 20 μg/mL
  Inhibition (%): 25%
  Inhibitory Classification: Weak
  Mutant spots per individual (number of spots), Large Single: 1.63 (65)
  Mutant spots per individual (number of spots), Small Single: 5.3 (212)
  Mutant spots per individual (number of spots), Total: 7.80 (312)
  Mutant spots per individual (number of spots), Twin: 0.88 (35)
[1]; EMS 5 mM + 40 μg/mL
  Inhibition (%): 31%
  Inhibitory Classification: Weak
  Mutant spots per individual (number of spots), Large Single: 0.78 (31)
  Mutant spots per individual (number of spots), Small Single: 6.03 (241)
  Mutant spots per individual (number of spots), Total: 7.13 (285)
  Mutant spots per individual (number of spots), Twin: 0.33 (13)
[1]; EMS 5 mM + 80 μg/mL
  Inhibition (%): 60%
  Inhibitory Classification: Moderate
  Mutant spots per individual (number of spots), Large Single: 0.73 (29)
  Mutant spots per individual (number of spots), Small Single: 3.23 (129)
  Mutant spots per individual (number of spots), Total: 4.18 (167)
  Mutant spots per individual (number of spots), Twin: 0.23 (9)
[1]; EMS 5 mM + 120 μg/mL
  Inhibition (%): 76%
  Inhibitory Classification: Strong
  Mutant spots per individual (number of spots), Large Single: 0.20 (8)
  Mutant spots per individual (number of spots), Small Single: 2.20 (88)
  Mutant spots per individual (number of spots), Total: 2.53 (101)
  Mutant spots per individual (number of spots), Twin: 0.13 (5)
[1]; MMC 0.05 mM + 20 μg/mL
  Inhibition (%): 5%
  Inhibitory Classification: Negligible
  Mutant spots per individual (number of spots), Large Single: 0.85 (34)
  Mutant spots per individual (number of spots), Small Single: 3.70 (148)
  Mutant spots per individual (number of spots), Total: 4.65 (186)
  Mutant spots per individual (number of spots), Twin: 0.10 (4)
[1]; MMC 0.05 mM + 40 μg/mL
  Inhibition (%): 60%
  Mutant spots per individual (number of spots), Large Single: 0.18 (7)
  Mutant spots per individual (number of spots), Small Single: 1.63 (65)
  Mutant spots per individual (number of spots), Total: 1.93 (77)
  Mutant spots per individual (number of spots), Twin: 0.13 (5)
[1]; MMC 0.05 mM + 80 μg/mL
  Inhibition (%): 79%
  Inhibitory Classification: Strong
  Mutant spots per individual (number of spots), Large Single: 0.08 (3)
  Mutant spots per individual (number of spots), Small Single: 0.98 (39)
  Mutant spots per individual (number of spots), Total: 1.05 (42)
  Mutant spots per individual (number of spots), Twin: 0 (0)
[1]; MMC 0.05 mM + 120 μg/mL
  Inhibition (%): 88%
  Inhibitory Classification: Strong
  Mutant spots per individual (number of spots), Large Single: 0.03 (1)
  Mutant spots per individual (number of spots), Small Single: 0.55 (22)
  Mutant spots per individual (number of spots), Total: 0.58 (23)
  Mutant spots per individual (number of spots), Twin: 0 (0)
[1]; [2]
  Inhibition (%): 54%
  Inhibitory Classification: Moderate
  Mutant spots per individual (number of spots), Large Single: 0.09 (3)
  Mutant spots per individual (number of spots), Small Single: 0.78 (25)
  Mutant spots per individual (number of spots), Total: 0.88 (28)
  Mutant spots per individual (number of spots), Twin: 0 (0)
[1]; NMU (sodium nitrite 36 mM: methylurea 10 mM) + 20 μg/mL, listed as chrysin
  Inhibitory Classification: moderate (41–60%)
[1]; NMU + 40 μg/mL
  Inhibition (%): 80%
  Inhibitory Classification: Strong
  Mutant spots per individual (number of spots), Large Single: 0.05 (2)
  Mutant spots per individual (number of spots), Small Single: 0.30 (12)
  Mutant spots per individual (number of spots), Total: 0.38 (15)
  Mutant spots per individual (number of spots), Twin: 0.03 (1)
[1]; NMU + 80 μg/mL
  Inhibition (%): 81%
  Inhibitory Classification: Strong
  Mutant spots per individual (number of spots), Large Single: 0.04 (1)
  Mutant spots per individual (number of spots), Small Single: 0.32 (9)
  Mutant spots per individual (number of spots), Total: 0.36 (10)
  Mutant spots per individual (number of spots), Twin: 0 (0)
[1]; NMU + 120 μg/mL
  Inhibition (%): 95%
  Inhibitory Classification: Strong
  Mutant spots per individual (number of spots), Large Single: 0.05 (2)
  Mutant spots per individual (number of spots), Small Single: 0.05 (2)
  Mutant spots per individual (number of spots), Total: 0.10 (4)
  Mutant spots per individual (number of spots), Twin: 0 (0)
[1]; URE 20 mM + 20 μg/mL
  Inhibition (%): 84%
  Inhibitory Classification: Strong
  Mutant spots per individual (number of spots), Large Single: 0.15 (6)
  Mutant spots per individual (number of spots), Small Single: 1.55 (62)
  Mutant spots per individual (number of spots), Total: 1.70 (68)
  Mutant spots per individual (number of spots), Twin: 0 (0)
[1]; URE 20 mM + 40 μg/mL
  Inhibition (%): 84%
  Inhibitory Classification: Strong
  Mutant spots per individual (number of spots), Large Single: 0 (0)
  Mutant spots per individual (number of spots), Small Single: 1.75 (70)
  Mutant spots per individual (number of spots), Total: 1.75 (70)
  Mutant spots per individual (number of spots), Twin: 0 (0)
[1]; URE 20 mM + 80 μg/mL
  Inhibition (%): 92%
  Inhibitory Classification: Strong
  Mutant spots per individual (number of spots), Large Single: 0.03 (1)
  Mutant spots per individual (number of spots), Small Single: 0.88 (35)
  Mutant spots per individual (number of spots), Total: 0.90 (36)
  Mutant spots per individual (number of spots), Twin: 0 (0)
[1]; URE 20 mM + 120 μg/mL
  Inhibition (%): 89%
  Inhibitory Classification: Strong
  Mutant spots per individual (number of spots), Large Single: 0.08 (3)
  Mutant spots per individual (number of spots), Small Single: 1.08 (43)
  Mutant spots per individual (number of spots), Total: 1.18 (47)
  Mutant spots per individual (number of spots), Twin: 0.03 (1)
